Experimental data published in ChEMBL document CHEMBL1817560, “Selectivity of kinase inhibitor fragments” (J Med Chem, 2011).

Experiments:
[1] = target: Focal adhesion kinase 1 (Homo sapiens) (UniProt Q05397); test: Inhibition of FAK expressed in Escherichia coli or baculovirus-infected insect cells at 400 uM by TR-FRET assay
[2] = target: Glycogen synthase kinase-3 beta (Homo sapiens) (UniProt P49841); test: Inhibition of GSK3-beta expressed in Escherichia coli or baculovirus-infected insect cells using ATP as substrate at 667 uM by fluorescence polarization assay
[3] = target: RAC-beta serine/threonine-protein kinase (Homo sapiens) (UniProt P31751); test: Inhibition of AKT2 expressed in Escherichia coli or baculovirus-infected insect cells using gamma-[33P]ATP at 400 uM by scintillation proximity assay
[4] = target: T1, Serine/threonine-protein kinase Sgk1 (Homo sapiens) (UniProt O00141); test: Inhibition of SGK1 expressed in Escherichia coli or baculovirus-infected insect cells at 400 uM by IMAP assay
T1 sequence (whole entry): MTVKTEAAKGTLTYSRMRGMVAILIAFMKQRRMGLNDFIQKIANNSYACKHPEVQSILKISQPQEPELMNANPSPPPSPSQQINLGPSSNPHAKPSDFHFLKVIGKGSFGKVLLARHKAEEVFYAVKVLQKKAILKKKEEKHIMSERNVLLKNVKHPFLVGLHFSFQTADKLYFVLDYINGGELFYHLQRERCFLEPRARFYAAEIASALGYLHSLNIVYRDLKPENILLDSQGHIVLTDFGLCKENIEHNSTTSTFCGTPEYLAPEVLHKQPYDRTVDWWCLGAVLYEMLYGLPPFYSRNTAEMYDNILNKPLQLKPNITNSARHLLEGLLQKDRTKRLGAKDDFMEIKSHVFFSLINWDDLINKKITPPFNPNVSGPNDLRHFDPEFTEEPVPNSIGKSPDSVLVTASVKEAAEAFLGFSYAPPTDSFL

[5] = target: 3-phosphoinositide-dependent protein kinase 1 (Homo sapiens) (UniProt O15530); test: Inhibition of PDK1 expressed in Escherichia coli or baculovirus-infected insect cells using gamma-[33P]ATP at 400 uM by scintillation proximity assay
[6] = target: T2, Tyrosine-protein kinase ITK/TSK (Homo sapiens) (UniProt Q08881); test: Inhibition of ITK expressed in Escherichia coli or baculovirus-infected insect cells at 667 uM by TR-FRET assay
T2 sequence (whole entry): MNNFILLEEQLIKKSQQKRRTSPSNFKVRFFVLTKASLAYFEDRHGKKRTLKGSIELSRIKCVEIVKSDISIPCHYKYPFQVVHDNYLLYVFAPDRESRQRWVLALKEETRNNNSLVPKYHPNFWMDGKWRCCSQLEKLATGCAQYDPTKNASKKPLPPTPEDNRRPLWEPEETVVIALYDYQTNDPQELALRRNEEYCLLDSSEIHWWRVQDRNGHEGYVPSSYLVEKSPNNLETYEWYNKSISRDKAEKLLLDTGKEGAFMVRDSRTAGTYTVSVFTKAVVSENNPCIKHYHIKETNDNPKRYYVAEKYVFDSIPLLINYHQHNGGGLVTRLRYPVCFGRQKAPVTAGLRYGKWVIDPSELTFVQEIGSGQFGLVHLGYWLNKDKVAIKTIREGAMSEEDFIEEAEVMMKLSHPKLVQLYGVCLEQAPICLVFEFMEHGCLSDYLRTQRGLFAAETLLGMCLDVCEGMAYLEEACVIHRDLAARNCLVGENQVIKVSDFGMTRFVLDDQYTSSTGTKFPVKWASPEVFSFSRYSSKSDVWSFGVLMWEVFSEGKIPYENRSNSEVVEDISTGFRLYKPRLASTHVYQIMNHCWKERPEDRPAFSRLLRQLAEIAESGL

[7] = target: Tyrosine-protein kinase Fes/Fps (Homo sapiens) (UniProt P07332); test: Inhibition of FES expressed in Escherichia coli or baculovirus-infected insect cells using ATP as substrate at 400 uM by fluorescence polarization assay
[8] = target: Phosphatidylinositol 4,5-bisphosphate 3-kinase catalytic subunit alpha isoform (Homo sapiens) (UniProt P42336); test: Inhibition of PI3Kalpha expressed in Escherichia coli or baculovirus-infected insect cells using gamma-[33P]ATP at 400 uM by scintillation proximity assay
[9] = target: T3, Tyrosine-protein kinase JAK3 (Homo sapiens) (UniProt P52333); test: Inhibition of JAK3 expressed in Escherichia coli or baculovirus-infected insect cells at 667 uM by TR-FRET assay
T3 sequence (whole entry): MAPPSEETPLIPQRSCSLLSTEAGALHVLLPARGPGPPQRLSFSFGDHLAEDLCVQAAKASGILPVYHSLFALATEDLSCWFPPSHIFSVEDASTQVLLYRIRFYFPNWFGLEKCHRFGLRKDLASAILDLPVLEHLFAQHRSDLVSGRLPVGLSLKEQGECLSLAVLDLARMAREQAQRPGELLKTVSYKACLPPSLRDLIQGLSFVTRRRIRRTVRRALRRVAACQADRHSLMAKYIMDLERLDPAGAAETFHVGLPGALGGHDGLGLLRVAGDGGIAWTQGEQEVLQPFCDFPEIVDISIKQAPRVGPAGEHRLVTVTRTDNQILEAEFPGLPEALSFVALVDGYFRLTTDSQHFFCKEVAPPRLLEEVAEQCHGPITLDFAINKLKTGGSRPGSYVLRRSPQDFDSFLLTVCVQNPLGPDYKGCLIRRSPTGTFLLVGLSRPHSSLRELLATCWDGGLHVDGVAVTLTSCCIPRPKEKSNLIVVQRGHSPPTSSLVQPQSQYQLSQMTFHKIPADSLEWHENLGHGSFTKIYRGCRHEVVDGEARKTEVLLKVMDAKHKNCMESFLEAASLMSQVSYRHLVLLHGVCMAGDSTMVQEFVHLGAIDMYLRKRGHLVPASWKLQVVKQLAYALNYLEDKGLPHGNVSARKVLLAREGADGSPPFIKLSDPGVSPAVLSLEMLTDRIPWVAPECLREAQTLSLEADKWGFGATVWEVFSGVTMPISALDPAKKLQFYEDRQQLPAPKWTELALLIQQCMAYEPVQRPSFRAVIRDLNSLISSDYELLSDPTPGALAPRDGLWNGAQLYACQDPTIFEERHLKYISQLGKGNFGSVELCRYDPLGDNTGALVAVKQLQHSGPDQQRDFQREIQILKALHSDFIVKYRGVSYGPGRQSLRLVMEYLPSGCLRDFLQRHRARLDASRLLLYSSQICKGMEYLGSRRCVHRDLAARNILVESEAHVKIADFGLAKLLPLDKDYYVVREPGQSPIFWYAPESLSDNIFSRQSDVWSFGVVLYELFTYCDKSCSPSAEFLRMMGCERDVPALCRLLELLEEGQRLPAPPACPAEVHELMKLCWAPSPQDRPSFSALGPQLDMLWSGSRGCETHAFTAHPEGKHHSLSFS

[10] = target: Phosphatidylinositol 4,5-bisphosphate 3-kinase catalytic subunit gamma isoform (Homo sapiens) (UniProt P48736); test: Inhibition of PI3Kgamma expressed in Escherichia coli or baculovirus-infected insect cells at 667 uM by fluorescence polarization assay
Chain of Phosphatidylinositol 4,5-bisphosphate 3-kinase catalytic subunit gamma isoform (Homo sapiens) (P48736 whole entry, looked up, canonical isoform): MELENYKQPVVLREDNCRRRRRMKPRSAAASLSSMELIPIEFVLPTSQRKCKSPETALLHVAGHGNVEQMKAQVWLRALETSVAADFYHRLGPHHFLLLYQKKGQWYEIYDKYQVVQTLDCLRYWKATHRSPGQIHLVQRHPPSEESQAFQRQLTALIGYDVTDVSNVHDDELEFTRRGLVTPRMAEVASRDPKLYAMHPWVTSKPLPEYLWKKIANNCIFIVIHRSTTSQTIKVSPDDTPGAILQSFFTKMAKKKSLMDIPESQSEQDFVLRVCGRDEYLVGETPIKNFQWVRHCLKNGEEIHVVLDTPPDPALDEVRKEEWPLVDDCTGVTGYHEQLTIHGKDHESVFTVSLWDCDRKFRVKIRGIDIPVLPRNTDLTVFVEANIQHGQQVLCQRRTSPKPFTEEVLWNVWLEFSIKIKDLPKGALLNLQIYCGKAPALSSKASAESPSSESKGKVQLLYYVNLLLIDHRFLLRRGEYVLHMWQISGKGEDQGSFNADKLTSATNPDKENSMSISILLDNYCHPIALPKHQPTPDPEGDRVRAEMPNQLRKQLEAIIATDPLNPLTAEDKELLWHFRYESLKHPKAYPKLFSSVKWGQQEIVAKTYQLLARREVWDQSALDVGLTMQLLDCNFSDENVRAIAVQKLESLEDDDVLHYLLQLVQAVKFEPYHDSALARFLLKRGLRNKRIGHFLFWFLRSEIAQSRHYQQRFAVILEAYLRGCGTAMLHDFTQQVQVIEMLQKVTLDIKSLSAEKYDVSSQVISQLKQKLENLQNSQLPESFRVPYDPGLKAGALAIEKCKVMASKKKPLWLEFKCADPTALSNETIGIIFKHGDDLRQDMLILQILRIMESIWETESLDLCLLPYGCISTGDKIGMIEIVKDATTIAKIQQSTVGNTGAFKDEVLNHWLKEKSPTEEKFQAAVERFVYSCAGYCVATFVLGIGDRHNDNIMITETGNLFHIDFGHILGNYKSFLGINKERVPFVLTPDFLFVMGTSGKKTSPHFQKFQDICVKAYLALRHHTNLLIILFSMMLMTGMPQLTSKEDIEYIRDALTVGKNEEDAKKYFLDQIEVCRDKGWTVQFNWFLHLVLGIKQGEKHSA

Chain of RAC-beta serine/threonine-protein kinase (Homo sapiens) (P31751 whole entry): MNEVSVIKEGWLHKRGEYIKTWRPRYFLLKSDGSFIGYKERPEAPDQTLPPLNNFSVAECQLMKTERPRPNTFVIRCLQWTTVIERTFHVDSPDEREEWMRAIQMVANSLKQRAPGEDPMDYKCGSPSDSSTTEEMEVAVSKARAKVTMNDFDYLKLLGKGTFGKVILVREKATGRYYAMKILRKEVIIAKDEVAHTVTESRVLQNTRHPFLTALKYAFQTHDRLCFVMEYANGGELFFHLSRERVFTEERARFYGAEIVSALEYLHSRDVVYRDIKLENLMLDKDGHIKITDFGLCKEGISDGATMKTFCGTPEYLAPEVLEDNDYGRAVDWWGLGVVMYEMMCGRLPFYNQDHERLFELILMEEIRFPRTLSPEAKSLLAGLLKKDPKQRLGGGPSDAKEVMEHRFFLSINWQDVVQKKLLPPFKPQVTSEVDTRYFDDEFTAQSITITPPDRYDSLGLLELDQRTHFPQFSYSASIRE
Chain of 3-phosphoinositide-dependent protein kinase 1 (Homo sapiens) (O15530 whole entry, looked up): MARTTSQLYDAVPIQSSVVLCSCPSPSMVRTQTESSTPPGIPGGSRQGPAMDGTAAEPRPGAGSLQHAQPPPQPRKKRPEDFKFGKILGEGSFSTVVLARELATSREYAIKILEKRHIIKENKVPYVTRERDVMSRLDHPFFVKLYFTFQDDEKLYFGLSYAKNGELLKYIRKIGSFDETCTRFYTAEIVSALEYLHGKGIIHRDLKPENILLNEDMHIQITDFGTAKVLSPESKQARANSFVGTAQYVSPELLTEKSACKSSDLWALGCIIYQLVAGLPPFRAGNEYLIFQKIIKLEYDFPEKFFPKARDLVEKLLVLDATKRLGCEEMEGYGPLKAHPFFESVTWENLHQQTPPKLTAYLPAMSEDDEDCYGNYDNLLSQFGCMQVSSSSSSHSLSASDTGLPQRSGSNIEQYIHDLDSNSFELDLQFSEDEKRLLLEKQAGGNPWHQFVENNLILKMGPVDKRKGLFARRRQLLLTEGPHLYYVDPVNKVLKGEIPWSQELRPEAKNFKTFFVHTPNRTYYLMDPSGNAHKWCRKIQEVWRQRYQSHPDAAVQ
Chain of Tyrosine-protein kinase Fes/Fps (Homo sapiens) (P07332 whole entry, canonical isoform): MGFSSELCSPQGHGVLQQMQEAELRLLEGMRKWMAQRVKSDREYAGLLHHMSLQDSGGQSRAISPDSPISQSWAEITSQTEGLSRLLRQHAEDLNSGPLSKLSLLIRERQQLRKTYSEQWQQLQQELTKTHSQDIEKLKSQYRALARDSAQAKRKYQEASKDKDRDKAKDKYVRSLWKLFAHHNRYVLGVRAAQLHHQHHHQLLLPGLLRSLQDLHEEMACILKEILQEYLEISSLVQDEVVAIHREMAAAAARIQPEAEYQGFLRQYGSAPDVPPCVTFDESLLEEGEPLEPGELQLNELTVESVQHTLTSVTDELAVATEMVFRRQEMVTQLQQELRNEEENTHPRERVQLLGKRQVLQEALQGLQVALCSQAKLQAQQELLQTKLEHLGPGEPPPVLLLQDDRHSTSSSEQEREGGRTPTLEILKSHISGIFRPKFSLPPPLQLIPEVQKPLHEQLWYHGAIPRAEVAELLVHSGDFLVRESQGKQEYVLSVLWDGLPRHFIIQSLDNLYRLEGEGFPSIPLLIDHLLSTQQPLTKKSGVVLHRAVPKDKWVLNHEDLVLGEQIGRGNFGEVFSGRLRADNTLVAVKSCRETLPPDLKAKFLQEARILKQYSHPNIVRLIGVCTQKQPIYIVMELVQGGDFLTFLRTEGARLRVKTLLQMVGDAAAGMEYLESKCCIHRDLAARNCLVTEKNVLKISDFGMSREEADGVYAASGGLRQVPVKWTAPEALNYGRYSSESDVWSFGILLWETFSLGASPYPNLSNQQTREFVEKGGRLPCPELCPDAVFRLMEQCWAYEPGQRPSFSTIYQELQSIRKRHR
Chain of Glycogen synthase kinase-3 beta (Homo sapiens) (P49841 whole entry, looked up): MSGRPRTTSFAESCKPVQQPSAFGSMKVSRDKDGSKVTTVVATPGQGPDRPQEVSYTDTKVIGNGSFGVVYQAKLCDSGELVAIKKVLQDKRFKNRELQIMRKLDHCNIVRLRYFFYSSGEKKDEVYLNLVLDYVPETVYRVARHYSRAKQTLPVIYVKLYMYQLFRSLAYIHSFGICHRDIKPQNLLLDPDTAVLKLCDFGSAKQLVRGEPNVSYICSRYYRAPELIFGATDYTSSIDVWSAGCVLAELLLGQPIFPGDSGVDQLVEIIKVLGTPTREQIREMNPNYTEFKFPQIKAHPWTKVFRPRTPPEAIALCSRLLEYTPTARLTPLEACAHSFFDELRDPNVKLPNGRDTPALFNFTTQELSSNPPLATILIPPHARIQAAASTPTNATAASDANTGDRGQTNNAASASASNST
Chain of Focal adhesion kinase 1 (Homo sapiens) (Q05397 2-1052 limits assumed): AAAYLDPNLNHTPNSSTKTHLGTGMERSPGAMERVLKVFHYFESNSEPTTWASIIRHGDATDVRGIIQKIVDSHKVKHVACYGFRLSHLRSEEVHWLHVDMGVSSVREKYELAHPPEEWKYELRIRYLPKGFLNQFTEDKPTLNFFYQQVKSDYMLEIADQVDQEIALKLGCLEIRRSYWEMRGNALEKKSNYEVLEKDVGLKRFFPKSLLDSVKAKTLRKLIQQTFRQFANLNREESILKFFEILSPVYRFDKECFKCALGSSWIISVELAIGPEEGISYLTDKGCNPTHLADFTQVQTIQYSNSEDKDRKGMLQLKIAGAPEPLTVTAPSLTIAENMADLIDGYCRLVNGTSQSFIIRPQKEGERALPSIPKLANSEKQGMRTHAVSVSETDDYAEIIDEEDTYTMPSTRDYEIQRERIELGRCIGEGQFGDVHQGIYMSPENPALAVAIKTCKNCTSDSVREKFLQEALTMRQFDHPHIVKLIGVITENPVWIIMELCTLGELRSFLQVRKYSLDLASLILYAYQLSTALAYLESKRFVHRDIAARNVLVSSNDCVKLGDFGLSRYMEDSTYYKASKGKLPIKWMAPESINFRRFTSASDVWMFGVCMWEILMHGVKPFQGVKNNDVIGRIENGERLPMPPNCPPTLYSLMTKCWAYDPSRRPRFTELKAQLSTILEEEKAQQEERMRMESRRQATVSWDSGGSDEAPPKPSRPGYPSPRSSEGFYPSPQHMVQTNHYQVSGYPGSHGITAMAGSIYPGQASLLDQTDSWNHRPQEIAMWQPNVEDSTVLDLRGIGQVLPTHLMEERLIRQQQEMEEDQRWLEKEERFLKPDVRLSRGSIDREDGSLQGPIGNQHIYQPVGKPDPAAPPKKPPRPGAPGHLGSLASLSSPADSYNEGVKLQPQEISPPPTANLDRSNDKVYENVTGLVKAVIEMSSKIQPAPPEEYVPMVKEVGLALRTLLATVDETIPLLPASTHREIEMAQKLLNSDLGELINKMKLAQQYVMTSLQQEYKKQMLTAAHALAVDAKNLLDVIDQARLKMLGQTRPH

SMILES | inhibition [1] [%] | inhibition [2] [%] | inhibition [3] [%] | inhibition [4] [%] | inhibition [5] [%] | inhibition [6] [%] | inhibition [7] [%] | inhibition [8] [%] | inhibition [9] [%] | inhibition [10] [%]
c1cnc2[nH]ccc2c1 | 3 | 21 | 19 | 62 | 25 | 44 | 9 | 16 | 53 | 20
Nc1ccc2ncc(-c3ccccc3)n2n1 | 33 | 66 | 39 | 90 | 66 | 94 | 68 | 86 | 74 | 70
Cc1ccc(C(=O)NC2CC2)cc1F | 6 | 23 | 9 | 17 | 11 | 14 | 1 | 16 | 0 | 13
Cc1ccc(NC(=O)Nc2cccc(C(F)(F)F)c2)cc1 | 4 | 22 | 0 | 8 | 15 | 0 | 0 | 4 | 0 | 0
Nc1ncccc1OCc1ccccc1 | 6 | 92 | 25 | 52 | 35 | 12 | 100 | 59 | 54 | 100
c1ccc(Nc2ncccn2)cc1 | 10 | 55 | 16 | 21 | 27 | 69 | 35 | 14 | 36 | 16
c1ccc2[nH]ncc2c1 [INDAZOLE] | 3 | 35 | 12 | 75 | 25 | 26 | 1 | 6 | 29 | 0
c1ccc(Nc2ccccc2)cc1 | 0 | 13 | 9 | 3 | 9 | 41 | 9 | 20 | 2 | 2
